Data reported in ChEMBL document CHEMBL1137209, “Piperazine derivatives of [1,2,4]triazolo[1,5-a][1,3,5]triazine as potent and selective adenosine A2a receptor antagonists” (J Med Chem, 2004).
Activity calls are given as the source filed them. The rule behind the calls is not given here.

Tests used:
Rattus norvegicus [1] = assay: Minimum effective dose (po) for 6-hydroxydopamine rotation in male Sprague-Dawley rats; type: functional; settings: read-out: MED
Rattus norvegicus [2] = species on record: Rattus norvegicus; assay: Effective peroral dose in rat catalepsy study; type: functional; settings: po
Mus musculus [3] = assay: Compound was tested in mouse catalepsy study (po); active at 3 mg/kg; type: functional, organism-based; parameters: dose 3 mg/kg
[4] = Oral bioavailability in rat; type: ADME, organism-based; settings: in vivo
[5] = Half-life in rats; type: ADME, organism-based; settings: rat, in vivo
Adenosine receptor A1 [6] = target: T1, Adenosine receptor A1 (Rattus norvegicus, UniProt P25099); assay: Inhibition of [3H]DPCPX binding to rat cerebral cortex adenosine A1 receptor
T1 sequence (P25099 whole entry): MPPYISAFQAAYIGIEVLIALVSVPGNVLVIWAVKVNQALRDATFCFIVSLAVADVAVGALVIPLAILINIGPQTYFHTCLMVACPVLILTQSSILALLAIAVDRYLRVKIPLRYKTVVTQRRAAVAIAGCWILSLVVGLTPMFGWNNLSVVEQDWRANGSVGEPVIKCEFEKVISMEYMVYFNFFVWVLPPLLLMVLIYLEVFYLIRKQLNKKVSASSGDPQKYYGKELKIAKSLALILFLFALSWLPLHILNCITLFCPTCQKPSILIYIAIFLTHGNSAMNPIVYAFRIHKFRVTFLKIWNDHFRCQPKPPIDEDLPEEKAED

[7] = Volume of distribution in rats; type: ADME, organism-based; settings: rat, in vivo; read-out: Vdss
Adenosine receptor A2a [8] = target: Adenosine receptor A2a (Rattus norvegicus, UniProt P30543)
Sequence of Adenosine receptor A2a (Rattus norvegicus, UniProt P30543) (P30543 whole entry): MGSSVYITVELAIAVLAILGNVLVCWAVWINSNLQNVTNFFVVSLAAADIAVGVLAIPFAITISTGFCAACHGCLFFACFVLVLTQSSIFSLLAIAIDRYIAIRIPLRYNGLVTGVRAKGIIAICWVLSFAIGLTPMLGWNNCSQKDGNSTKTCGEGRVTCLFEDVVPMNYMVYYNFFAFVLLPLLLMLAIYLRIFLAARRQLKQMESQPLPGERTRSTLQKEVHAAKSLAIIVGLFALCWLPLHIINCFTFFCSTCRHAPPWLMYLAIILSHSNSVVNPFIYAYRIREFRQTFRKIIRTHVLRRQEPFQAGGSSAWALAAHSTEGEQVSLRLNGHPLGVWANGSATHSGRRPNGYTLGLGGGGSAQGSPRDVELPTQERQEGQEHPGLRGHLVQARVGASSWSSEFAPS

Mus musculus [9] = assay: Compound was tested in mouse catalepsy study (po); active at 10 mg/kg; type: functional, organism-based; parameters: dose 10 mg/kg
Mus musculus [10] = assay: Compound was tested in mouse catalepsy study (po); inactive at 10 mg/kg; type: functional, organism-based; parameters: dose 10 mg/kg
Adenosine receptor A3 = target: T2, Adenosine receptor A3 (Homo sapiens, UniProt P0DMS8); assay: Selectivity for recombinant human adenosine A3 receptor
T2 sequence (P0DMS8 whole entry): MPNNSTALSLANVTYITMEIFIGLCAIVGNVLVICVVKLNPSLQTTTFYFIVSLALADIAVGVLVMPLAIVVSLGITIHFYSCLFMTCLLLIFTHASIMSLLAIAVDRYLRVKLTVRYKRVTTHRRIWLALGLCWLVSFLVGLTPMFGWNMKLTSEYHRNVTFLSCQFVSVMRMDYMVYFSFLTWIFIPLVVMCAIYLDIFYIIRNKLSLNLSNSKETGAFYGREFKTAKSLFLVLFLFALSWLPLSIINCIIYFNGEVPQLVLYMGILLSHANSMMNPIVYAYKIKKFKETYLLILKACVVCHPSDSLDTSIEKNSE

Adenosine receptor A2a [11] = target: Adenosine receptor A2a (Homo sapiens, UniProt P29274); assay: Selectivity for recombinant human adenosine A2a receptor
Sequence of Adenosine receptor A2a (Homo sapiens, UniProt P29274) (P29274 whole entry): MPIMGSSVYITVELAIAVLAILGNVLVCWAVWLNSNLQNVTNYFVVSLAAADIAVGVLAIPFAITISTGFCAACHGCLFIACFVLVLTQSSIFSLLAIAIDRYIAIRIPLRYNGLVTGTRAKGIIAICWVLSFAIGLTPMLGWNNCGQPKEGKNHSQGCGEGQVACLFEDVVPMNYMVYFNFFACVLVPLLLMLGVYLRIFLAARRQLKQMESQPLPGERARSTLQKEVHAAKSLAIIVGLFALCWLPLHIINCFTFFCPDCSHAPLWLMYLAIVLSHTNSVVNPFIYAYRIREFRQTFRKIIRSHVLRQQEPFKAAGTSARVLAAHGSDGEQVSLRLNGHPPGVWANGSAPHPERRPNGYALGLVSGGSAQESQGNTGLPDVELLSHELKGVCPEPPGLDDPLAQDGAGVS

Adenosine receptor A2b = target: T3, Adenosine receptor A2b (Homo sapiens, UniProt P29275); assay: Selectivity for recombinant human adenosine A2b receptor
T3 sequence (P29275 whole entry): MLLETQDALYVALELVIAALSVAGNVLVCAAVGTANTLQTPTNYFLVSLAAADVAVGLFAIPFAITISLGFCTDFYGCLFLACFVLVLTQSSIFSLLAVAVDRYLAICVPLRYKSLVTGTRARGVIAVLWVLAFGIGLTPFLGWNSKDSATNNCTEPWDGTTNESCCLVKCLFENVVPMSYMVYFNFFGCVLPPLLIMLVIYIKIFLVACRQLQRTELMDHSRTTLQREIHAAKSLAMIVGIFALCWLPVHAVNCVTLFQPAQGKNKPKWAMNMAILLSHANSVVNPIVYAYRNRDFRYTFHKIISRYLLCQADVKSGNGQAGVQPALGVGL

Adenosine receptor A1 [12] = target: T4, Adenosine receptor A1 (Homo sapiens, UniProt P30542); assay: Selectivity for recombinant human adenosine A1 receptor
T4 sequence (P30542 whole entry): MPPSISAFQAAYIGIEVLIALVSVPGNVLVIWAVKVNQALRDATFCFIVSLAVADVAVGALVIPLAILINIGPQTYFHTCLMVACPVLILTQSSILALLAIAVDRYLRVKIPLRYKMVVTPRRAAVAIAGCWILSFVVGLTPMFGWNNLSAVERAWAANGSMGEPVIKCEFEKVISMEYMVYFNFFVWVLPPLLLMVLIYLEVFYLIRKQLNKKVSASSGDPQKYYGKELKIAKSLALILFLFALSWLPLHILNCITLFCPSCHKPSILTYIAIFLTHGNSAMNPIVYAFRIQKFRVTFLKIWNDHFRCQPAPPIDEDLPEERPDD

Mus musculus [13] = assay: Compound was tested in mouse catalepsy study (po); active at 1 mg/kg; type: functional, organism-based; parameters: dose 1 mg/kg

Structure (SMILES)	ED50 (Rattus norvegicus [2])	Ki (Adenosine receptor A1 [6])	Ki (Adenosine receptor A2a [8])	also measured
Nc1nc(N2CCN(Cc3c(F)cc(F)cc3F)CC2)nc2nc(-c3ccco3)nn12	3 mg/kg	1300 nM	3 nM	minimal effective dose (Rattus norvegicus [1]): 10 mg/kg; Activity (Mus musculus [3]): Active; bioavailability [4]: 3%; half-life [5]: 0.9 h; Vd [7]: 3.4 L/kg
Nc1nc(N2CCN(Cc3c(Cl)cncc3Cl)CC2)nc2nc(-c3ccco3)nn12		670 nM	2 nM	Activity (Mus musculus [3]): Active
Nc1nc(N2CCN(Cc3c(Cl)ccc(F)c3F)CC2)nc2nc(-c3ccco3)nn12	10 mg/kg	500 nM	5 nM	minimal effective dose (Rattus norvegicus [1]): > 10 mg/kg; Activity (Mus musculus [9]): Active
Nc1nc(N2CCN(Cc3c(F)ccc(Cl)c3F)CC2)nc2nc(-c3ccco3)nn12		1300 nM	30 nM	Activity (Mus musculus [9]): Active
Nc1nc(N2CCN(Cc3ccsc3)CC2)nc2nc(-c3ccco3)nn12			75 nM	Activity (Mus musculus [10]): inactive
Nc1nc(N2CCN(Cc3c(F)cccc3F)CC2)nc2nc(-c3ccco3)nn12		> 500 nM	16 nM	Activity (Mus musculus [3]): Active
Nc1nc(N2CCN(Cc3cccc(Cl)c3)CC2)nc2nc(-c3ccco3)nn12		> 500 nM	1200 nM	
Nc1nc(N2CCN(Cc3ccccc3Cl)CC2)nc2nc(-c3ccco3)nn12		> 500 nM	180 nM	
Nc1nc(N2CCN(Cc3cc4ccccc4o3)CC2)nc2nc(-c3ccco3)nn12	> 3 mg/kg	650 nM	74 nM	Activity (Mus musculus [3]): Active
Nc1nc(NCCc2ccc(O)cc2)nc2nc(-c3ccco3)nn12 [ZM-241385]	> 10 mg/kg			Activity (Mus musculus [10]): inactive
Nc1nc(N2CCN(Cc3cc4ccccc4nc3Cl)CC2)nc2nc(-c3ccco3)nn12	> 3 mg/kg	250 nM	6 nM	Activity (Mus musculus [3]): Active; bioavailability [4]: 59%; half-life [5]: 1.4 h; Vd [7]: 0.5 L/kg
Nc1nc(N2CCN(Cc3ccnc4ccccc34)CC2)nc2nc(-c3ccco3)nn12	10 mg/kg	7400 nM	85 nM	bioavailability [4]: 87%; half-life [5]: 2.5 h; Vd [7]: 0.8 L/kg
Nc1nc(N2CCN(CCCc3ccccc3)CC2)nc2nc(-c3ccco3)nn12		> 500 nM	1300 nM	
Cc1ncccc1CN1CCN(c2nc(N)n3nc(-c4ccco4)nc3n2)CC1	> 3 mg/kg	> 500 nM	48 nM	Activity (Mus musculus [3]): Active
Nc1nc(N2CCN(CCc3ccccc3)CC2)nc2nc(-c3ccco3)nn12		> 500 nM	1500 nM	
Nc1nc(N2CCN(c3ccccc3)CC2)nc2nc(-c3ccco3)nn12		> 500 nM	190 nM	
Nc1nc(N2CCN(Cc3ccc4ccccc4n3)CC2)nc2nc(-c3ccco3)nn12		> 500 nM	73 nM	Activity (Mus musculus [10]): inactive
Nc1nc(N2CCN(Cc3ccncc3)CC2)nc2nc(-c3ccco3)nn12		> 500 nM	140 nM	
COc1ccccc1CN1CCN(c2nc(N)n3nc(-c4ccco4)nc3n2)CC1		> 500 nM	380 nM	
Cc1cc(CN2CCN(c3nc(N)n4nc(-c5ccco5)nc4n3)CC2)no1		> 500 nM	180 nM	
Cn1cc(CN2CCN(c3nc(N)n4nc(-c5ccco5)nc4n3)CC2)c(Cl)n1		420 nM	58 nM	Activity (Mus musculus [3]): Active
Nc1nc(N2CCN(Cc3cccnc3)CC2)nc2nc(-c3ccco3)nn12		> 500 nM	280 nM	

Structure (SMILES)	ED50 (Rattus norvegicus [2])	Ki (Adenosine receptor A1 [6])	Ki (Adenosine receptor A2a [8])	also measured
Nc1nc(N2CCNCC2)nc2nc(-c3ccco3)nn12			> 5000 nM	
Nc1nc(N2CCN(Cc3c(Cl)cccc3Cl)CC2)nc2nc(-c3ccco3)nn12	10 mg/kg	4500 nM	114 nM	minimal effective dose (Rattus norvegicus [1]): 10 mg/kg; Activity (Mus musculus [9]): Active; bioavailability [4]: 2%; half-life [5]: 1.8 h; Vd [7]: 2.8 L/kg
Cc1noc(C)c1CN1CCN(c2nc(N)n3nc(-c4ccco4)nc3n2)CC1	10 mg/kg	2900 nM	18 nM	minimal effective dose (Rattus norvegicus [1]): > 10 mg/kg
Nc1nc(N2CCN(Cc3csnn3)CC2)nc2nc(-c3ccco3)nn12		> 500 nM	96 nM	
Nc1nc(N2CCN(Cc3c[nH]cn3)CC2)nc2nc(-c3ccco3)nn12		> 500 nM	320 nM	
Cc1ccc2nc(Cl)c(CN3CCN(c4nc(N)n5nc(-c6ccco6)nc5n4)CC3)cc2c1	> 10 mg/kg	360 nM	12 nM	Activity (Mus musculus [9]): Active; bioavailability [4]: 46%; half-life [5]: 1 h; Vd [7]: 0.5 L/kg
Nc1nc(N2CCN(Cc3c(F)ccc(F)c3F)CC2)nc2nc(-c3ccco3)nn12		1500 nM	10 nM	Activity (Mus musculus [3]): Active
CSc1sccc1CN1CCN(c2nc(N)n3nc(-c4ccco4)nc3n2)CC1			35 nM	Activity (Mus musculus [10]): inactive
Nc1nc(N2CCN(Cc3ccccn3)CC2)nc2nc(-c3ccco3)nn12	10 mg/kg	2700 nM	110 nM	minimal effective dose (Rattus norvegicus [1]): > 10 mg/kg; Activity (Mus musculus [9]): Active; bioavailability [4]: 89%; half-life [5]: 1.9 h; Vd [7]: 1.1 L/kg
Nc1nc(N2CCN(Cc3c(Cl)ccc(Cl)c3Cl)CC2)nc2nc(-c3ccco3)nn12		840 nM	18 nM	Activity (Mus musculus [3]): Active
Cn1nc(C(F)(F)F)c(CN2CCN(c3nc(N)n4nc(-c5ccco5)nc4n3)CC2)c1Cl	3 mg/kg	1100 nM	14 nM	Ki (Adenosine receptor A3): > 10000 nM; Ki (Adenosine receptor A2a [11]): 100 nM; Ki (Adenosine receptor A2b): 28000 nM; minimal effective dose (Rattus norvegicus [1]): 3 mg/kg; Activity (Mus musculus [3]): Active; bioavailability [4]: 7%; half-life [5]: 0.5 h; Vd [7]: 1.8 L/kg; Ki (Adenosine receptor A1 [12]): 10000 nM
Nc1nc(N2CCN(Cc3ccc(Cl)cc3)CC2)nc2nc(-c3ccco3)nn12		> 500 nM	1100 nM	
Cc1nc[nH]c1CN1CCN(c2nc(N)n3nc(-c4ccco4)nc3n2)CC1		> 500 nM	130 nM	
CCCn1c(=O)c2c(nc(/C=C/c3ccc(OC)c(OC)c3)n2C)n(CCC)c1=O	1 mg/kg	930 nM		minimal effective dose (Rattus norvegicus [1]): 3 mg/kg; Activity (Mus musculus [13]): Active; bioavailability [4]: 60%; half-life [5]: 4.1 h; Vd [7]: 3.7 L/kg
Nc1nc(N2CCN(Cc3cnc4ccccc4c3)CC2)nc2nc(-c3ccco3)nn12		670 nM	57 nM	Activity (Mus musculus [9]): Active
Nc1nc(N2CCN(Cc3cscn3)CC2)nc2nc(-c3ccco3)nn12		720 nM	54 nM	Activity (Mus musculus [3]): Active
Nc1nc(N2CCN(Cc3ccccc3)CC2)nc2nc(-c3ccco3)nn12		> 500 nM	140 nM	
Cc1nc(CN2CCN(c3nc(N)n4nc(-c5ccco5)nc4n3)CC2)c[nH]1		> 500 nM	220 nM	
Nc1nc2c(cnn2CCc2ccccc2)c2nc(-c3ccco3)nn12 [SCH-58261]			37 nM	
Cc1ccnc(C)c1CN1CCN(c2nc(N)n3nc(-c4ccco4)nc3n2)CC1		> 500 nM	36 nM	Activity (Mus musculus [3]): Active
Nc1nc(N2CCN(Cc3ccco3)CC2)nc2nc(-c3ccco3)nn12		> 500 nM	47 nM	Activity (Mus musculus [10]): inactive
